Laboratory results taken from patent US12076411B2, “Anti-HER2 antibody-maytansine conjugates and methods of use thereof” (priority 2014, dated 2024).

Columns and labels:
NCI-N87 cells [1] = assay: In vitro cytotoxicity, 6 day assay, Cell Titer-Glo (Example 2); format: cell-based; conditions: Homo sapiens, 144 h; NCI-N87, 6 day assay; antibody concentrations except for the free drug
Description: (§1) NCI-N87 cells, which overexpress HER2, were used as targets for in vitro cytotoxicity in a 6 day assay.
The HER2-positive breast carcinoma cell line, NCI-N87, was obtained from ATCC and maintained in RPMI-1640 medium (Cellgro) supplemented with 10% fetal bovine serum (Invitrogen) and Glutamax (Invitrogen). 24 h prior to plating, cells were passaged to ensure log-phase growth. On the day of plating, 5000 cells/well were seeded onto 96-well plates in 90 μL normal growth medium supplemented with 10 IU penicillin and 10 μg/mL streptomycin (Cellgro). Cells were treated at various concentrations with 10 μL of diluted analytes, and the plates were incubated at 37° C. in an atmosphere of 5% CO2. After 6 d, 100 μL/well of Cell Titer-Glo reagent (Promega) was added, and luminescence was measured using a Molecular Devices SpectraMax M5 plate reader. GraphPad Prism software was used for data analysis, including IC50 calculations.

NCI-N87 cells [2] = assay: In vitro cytotoxicity, 6 d, Cell Titer-Glo (Example 5); format: cell-based; conditions: Homo sapiens, 144 h; NCI-N87, 6 d
Description: The HER2-positive gastric carcinoma cell line, NCI-N87, was obtained from ATCC and maintained in RPMI-1640 medium (Cellgro) supplemented with 10% fetal bovine serum (Invitrogen) and Glutamax (Invitrogen). 24 h prior to plating, cells were passaged to ensure log-phase growth. On the day of plating, 5000 cells/well were seeded onto 96-well plates in 90 μL normal growth medium supplemented with 10 IU penicillin and 10 μg/mL streptomycin (Cellgro). […] After 6 d, 100 μL/well of Cell Titer-Glo reagent (Promega) was added, and luminescence was measured using a Molecular Devices SpectraMax M5 plate reader. GraphPad Prism software was used for data analysis.

NCI-N87 cells [3] = assay: In vitro cytotoxicity, 6 day assay, Cell Titer-Glo (Example 1); conditions: Homo sapiens, NCI-N87, 144 h
Description: as §1
24 h prior to plating, cells were passaged to ensure log-phase growth. On the day of plating, 5000 cells/well were seeded onto 96-well plates in 90 μL normal growth medium supplemented with 10 IU penicillin and 10 μg/mL streptomycin (Cellgro). Cells were treated at various concentrations with 10 μL of diluted analytes, and the plates were incubated at 37° C. in an atmosphere of 5% CO2. After 6 d, 100 μL/well of Cell Titer-Glo reagent (Promega, Madison, WI) was added, and luminescence was measured using a Molecular Devices SpectraMax M5 plate reader. GraphPad Prism software was used for data analysis, including IC50 calculations.

COc1cc2cc(c1Cl)N(C)C(=O)C[C@H](OC(=O)[C@H](C)N(C)C(C)=O)[C@]1(C)O[C@H]1[C@H](C)[C@@H]1C[C@@](O)(NC(=O)O1)[C@H](OC)/C=C/C=C(\C)C2 [free maytansine, maytansine]
IC50 (NCI-N87 cells [1]): 0.25 nM
IC50 (NCI-N87 cells [2]): 0.35 nM
IC50 (NCI-N87 cells [3]): 0.214 nM
